Activity, IC50 and Cmax data for 1 compound are collected here from ChEMBL document CHEMBL4715815, “Design, synthesis and biological evaluation of 7H-pyrrolo[2,3-d]pyrimidin-4-amine derivatives as selective Btk inhibitors with improved pharmacokinetic properties for the treatment of rheumatoid arthritis” (Eur J Med Chem, 2018).

pIC50: −log10 of the molar value.

Data set [1] is described as follows: Toxicity in BALB/c mouse assessed as effect on lung at 2 g/kg, po measured after 7 days of administration by histopathological analysis. As to conditions: in vivo, 168 h.
Data set [2] deals with High affinity nerve growth factor receptor (Homo sapiens, UniProt P04629). Put plainly: Inhibition of recombinant human TRKa using Ulight-Poly GAT[EAY(1:1:1)]n as substrate incubate for 10 mins by LANCE assay.
Data set [3] concerns the target NT-3 growth factor receptor (Homo sapiens, UniProt Q16288). In words: Inhibition of TRKc (unknown origin).
Data set [4] deals with Receptor-type tyrosine-protein kinase FLT3 (Homo sapiens, UniProt P36888). In words: Inhibition of FLT3 (unknown origin).
Sequence of Receptor-type tyrosine-protein kinase FLT3 (P36888 whole entry): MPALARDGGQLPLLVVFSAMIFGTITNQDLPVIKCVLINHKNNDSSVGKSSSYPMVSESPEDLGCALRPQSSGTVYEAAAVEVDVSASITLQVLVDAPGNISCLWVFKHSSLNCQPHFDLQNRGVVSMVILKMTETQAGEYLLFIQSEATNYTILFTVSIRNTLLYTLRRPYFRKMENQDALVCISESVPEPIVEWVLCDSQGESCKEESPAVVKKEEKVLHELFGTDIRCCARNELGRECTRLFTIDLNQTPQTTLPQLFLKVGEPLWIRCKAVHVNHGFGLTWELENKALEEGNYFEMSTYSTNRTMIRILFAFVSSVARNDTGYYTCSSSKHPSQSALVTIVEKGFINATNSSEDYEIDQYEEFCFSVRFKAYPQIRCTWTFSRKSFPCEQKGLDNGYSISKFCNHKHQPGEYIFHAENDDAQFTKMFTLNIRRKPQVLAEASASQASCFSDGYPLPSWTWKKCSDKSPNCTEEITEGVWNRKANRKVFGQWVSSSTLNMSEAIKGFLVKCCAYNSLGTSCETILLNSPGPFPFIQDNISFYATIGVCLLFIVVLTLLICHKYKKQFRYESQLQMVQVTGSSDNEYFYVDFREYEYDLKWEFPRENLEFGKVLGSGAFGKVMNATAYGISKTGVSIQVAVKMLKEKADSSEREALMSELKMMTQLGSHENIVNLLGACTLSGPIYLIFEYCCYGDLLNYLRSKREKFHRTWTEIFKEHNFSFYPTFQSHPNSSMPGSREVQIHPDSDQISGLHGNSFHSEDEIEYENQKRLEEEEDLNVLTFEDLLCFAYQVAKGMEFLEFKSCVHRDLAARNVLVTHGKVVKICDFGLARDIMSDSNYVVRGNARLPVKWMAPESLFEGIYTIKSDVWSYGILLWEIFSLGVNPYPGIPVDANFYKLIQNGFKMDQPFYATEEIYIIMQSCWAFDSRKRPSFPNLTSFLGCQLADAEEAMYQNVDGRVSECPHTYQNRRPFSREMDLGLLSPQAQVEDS
Data set [5] addresses Tyrosine-protein kinase BTK (Homo sapiens, UniProt Q06187). In words: Inhibition of BTK (unknown origin) by caliper mobility shift assay.
Data set [6] addresses Serine/threonine-protein kinase mTOR (Homo sapiens, UniProt P42345). Put plainly: Inhibition of mTOR (unknown origin).
Data set [7] has as its target Epidermal growth factor receptor (Homo sapiens, UniProt P00533).
The nature of data set [8]: Cmax in Sprague-Dawley rat at 3 mg/kg, po measured up to 24 hrs by LC-MS/MS analysis. Type of data set: ADME, organism-based. As to conditions: in vivo. Also on record: route oral, dose 3 mg/kg, time <=24.
Data set [9] has as its target Tyrosine-protein kinase HCK (Homo sapiens, UniProt P08631). Put plainly: Inhibition of HCK (unknown origin).
Data set [10] deals with Tyrosine-protein kinase JAK2 (Homo sapiens, UniProt O60674). In words: Inhibition of recombinant human JAK2 using Ulight-CAGAGAIETDKEYYTVKD as substrate incubate for 60 mins by LANCE assay.
Sequence of Tyrosine-protein kinase JAK2 (O60674 whole entry): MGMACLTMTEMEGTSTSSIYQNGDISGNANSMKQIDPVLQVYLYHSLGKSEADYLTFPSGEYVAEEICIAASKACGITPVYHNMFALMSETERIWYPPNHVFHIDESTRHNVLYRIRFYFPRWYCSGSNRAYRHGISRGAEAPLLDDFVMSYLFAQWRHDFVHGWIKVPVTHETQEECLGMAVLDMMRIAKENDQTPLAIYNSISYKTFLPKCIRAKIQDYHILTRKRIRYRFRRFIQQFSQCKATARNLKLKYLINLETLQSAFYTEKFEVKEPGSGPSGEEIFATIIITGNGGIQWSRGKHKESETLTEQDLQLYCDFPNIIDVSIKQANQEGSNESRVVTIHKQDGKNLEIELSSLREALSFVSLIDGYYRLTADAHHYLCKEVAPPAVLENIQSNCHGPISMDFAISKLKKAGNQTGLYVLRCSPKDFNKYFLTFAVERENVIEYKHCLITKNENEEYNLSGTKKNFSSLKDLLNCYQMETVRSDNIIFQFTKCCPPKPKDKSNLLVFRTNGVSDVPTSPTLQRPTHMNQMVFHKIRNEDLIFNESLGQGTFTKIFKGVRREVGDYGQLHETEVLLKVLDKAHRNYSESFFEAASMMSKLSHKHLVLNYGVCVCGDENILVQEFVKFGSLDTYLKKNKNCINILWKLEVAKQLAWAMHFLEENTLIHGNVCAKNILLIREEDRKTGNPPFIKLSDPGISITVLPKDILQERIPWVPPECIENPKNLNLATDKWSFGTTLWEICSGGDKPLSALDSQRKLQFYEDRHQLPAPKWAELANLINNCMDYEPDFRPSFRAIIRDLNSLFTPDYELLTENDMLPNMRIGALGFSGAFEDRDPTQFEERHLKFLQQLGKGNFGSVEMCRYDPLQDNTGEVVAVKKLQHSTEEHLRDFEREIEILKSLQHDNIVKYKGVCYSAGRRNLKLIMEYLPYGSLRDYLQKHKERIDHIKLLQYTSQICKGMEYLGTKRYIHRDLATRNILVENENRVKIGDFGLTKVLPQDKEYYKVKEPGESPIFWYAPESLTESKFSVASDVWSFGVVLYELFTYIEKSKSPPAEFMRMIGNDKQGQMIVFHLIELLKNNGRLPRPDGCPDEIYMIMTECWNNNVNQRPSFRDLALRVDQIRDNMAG
For data set [11], the target named is Tyrosine-protein kinase ITK/TSK (Homo sapiens, UniProt Q08881). Put plainly: Inhibition of ITK (unknown origin).
In data set [12] the target is Tyrosine-protein kinase Lck (Homo sapiens, UniProt P06239). In words: Inhibition of recombinant human LCK using Ulight-Poly GAT[EAY(1:1:1)]n as substrate incubate for 10 mins by LANCE assay.
Sequence of Tyrosine-protein kinase Lck (P06239 whole entry): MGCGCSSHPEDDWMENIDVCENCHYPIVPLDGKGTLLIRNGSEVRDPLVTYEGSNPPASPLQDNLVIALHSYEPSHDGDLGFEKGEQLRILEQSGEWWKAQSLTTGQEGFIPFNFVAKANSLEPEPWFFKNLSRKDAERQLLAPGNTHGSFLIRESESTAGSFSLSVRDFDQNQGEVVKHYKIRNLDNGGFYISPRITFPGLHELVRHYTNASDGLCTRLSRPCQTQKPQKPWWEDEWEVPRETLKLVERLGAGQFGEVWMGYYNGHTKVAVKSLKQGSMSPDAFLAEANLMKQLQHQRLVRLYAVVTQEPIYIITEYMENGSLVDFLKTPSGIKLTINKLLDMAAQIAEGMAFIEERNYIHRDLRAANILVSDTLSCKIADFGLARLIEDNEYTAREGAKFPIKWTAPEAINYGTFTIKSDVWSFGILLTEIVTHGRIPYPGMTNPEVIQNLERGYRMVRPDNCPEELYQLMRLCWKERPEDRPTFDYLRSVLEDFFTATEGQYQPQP
Data set [13] addresses Dual specificity mitogen-activated protein kinase kinase 6 (Homo sapiens, UniProt P52564). Put plainly: Inhibition of MKK6 (unknown origin).
The nature of data set [14]: Toxicity in DBA/1J mouse assessed as effect on body weight at 20 mg/kg, po administered for 30 days and measured on day 30. Type of data set: organism-based. The note with it: in vivo, 720 h, time 30 day.
Data set [15] is described as follows: Toxicity in BALB/c mouse assessed as effect on heart at 2 g/kg, po measured after 7 days of administration by histopathological analysis. As to conditions: in vivo, 168 h.

Sequence of Epidermal growth factor receptor (P00533 whole entry): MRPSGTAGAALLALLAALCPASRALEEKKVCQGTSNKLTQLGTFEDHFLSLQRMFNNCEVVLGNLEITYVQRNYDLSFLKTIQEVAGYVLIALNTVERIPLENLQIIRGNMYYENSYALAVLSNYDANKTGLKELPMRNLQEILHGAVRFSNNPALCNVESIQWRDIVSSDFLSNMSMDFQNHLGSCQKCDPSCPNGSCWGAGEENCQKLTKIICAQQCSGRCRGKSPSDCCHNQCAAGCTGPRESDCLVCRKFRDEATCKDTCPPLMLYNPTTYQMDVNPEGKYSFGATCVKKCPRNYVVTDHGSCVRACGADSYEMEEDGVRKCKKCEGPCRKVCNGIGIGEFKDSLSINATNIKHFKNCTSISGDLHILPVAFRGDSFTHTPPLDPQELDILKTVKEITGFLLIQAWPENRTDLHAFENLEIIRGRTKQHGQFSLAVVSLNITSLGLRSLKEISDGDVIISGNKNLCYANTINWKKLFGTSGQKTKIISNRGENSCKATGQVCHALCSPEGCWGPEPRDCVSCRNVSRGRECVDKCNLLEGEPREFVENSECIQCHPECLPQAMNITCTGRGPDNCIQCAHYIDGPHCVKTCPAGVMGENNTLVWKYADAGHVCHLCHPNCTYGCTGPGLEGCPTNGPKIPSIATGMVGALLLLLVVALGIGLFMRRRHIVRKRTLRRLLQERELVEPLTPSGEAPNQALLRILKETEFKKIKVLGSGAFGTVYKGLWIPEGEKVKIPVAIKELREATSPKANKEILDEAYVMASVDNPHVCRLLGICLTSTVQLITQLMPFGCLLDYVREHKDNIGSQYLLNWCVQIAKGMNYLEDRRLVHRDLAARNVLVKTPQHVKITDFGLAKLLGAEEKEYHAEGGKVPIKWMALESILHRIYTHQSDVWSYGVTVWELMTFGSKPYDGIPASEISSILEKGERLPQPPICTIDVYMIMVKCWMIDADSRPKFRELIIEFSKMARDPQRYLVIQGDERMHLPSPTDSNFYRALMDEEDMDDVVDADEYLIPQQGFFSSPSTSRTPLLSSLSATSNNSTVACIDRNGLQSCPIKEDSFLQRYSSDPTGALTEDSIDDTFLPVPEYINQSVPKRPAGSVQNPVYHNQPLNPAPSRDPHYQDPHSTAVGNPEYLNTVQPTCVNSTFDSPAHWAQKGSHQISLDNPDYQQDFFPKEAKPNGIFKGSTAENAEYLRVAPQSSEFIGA
Sequence of Tyrosine-protein kinase BTK (Q06187 whole entry): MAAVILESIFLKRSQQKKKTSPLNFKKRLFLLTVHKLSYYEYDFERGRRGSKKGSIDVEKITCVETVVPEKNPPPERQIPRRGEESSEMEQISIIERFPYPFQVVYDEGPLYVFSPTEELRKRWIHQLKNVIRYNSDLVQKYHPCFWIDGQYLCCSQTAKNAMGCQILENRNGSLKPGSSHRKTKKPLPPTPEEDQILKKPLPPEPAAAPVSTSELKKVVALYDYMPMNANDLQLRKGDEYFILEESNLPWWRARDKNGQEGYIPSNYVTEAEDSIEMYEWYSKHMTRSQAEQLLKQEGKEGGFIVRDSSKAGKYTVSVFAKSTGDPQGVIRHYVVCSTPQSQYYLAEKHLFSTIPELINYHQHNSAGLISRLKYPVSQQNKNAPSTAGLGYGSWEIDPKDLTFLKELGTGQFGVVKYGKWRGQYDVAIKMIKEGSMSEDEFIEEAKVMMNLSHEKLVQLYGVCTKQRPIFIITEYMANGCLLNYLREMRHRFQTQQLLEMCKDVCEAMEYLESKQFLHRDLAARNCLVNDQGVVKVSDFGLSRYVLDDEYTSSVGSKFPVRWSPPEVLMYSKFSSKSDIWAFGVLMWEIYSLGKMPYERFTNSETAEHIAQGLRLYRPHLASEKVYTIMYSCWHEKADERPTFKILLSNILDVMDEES
Sequence of Tyrosine-protein kinase HCK (P08631 whole entry): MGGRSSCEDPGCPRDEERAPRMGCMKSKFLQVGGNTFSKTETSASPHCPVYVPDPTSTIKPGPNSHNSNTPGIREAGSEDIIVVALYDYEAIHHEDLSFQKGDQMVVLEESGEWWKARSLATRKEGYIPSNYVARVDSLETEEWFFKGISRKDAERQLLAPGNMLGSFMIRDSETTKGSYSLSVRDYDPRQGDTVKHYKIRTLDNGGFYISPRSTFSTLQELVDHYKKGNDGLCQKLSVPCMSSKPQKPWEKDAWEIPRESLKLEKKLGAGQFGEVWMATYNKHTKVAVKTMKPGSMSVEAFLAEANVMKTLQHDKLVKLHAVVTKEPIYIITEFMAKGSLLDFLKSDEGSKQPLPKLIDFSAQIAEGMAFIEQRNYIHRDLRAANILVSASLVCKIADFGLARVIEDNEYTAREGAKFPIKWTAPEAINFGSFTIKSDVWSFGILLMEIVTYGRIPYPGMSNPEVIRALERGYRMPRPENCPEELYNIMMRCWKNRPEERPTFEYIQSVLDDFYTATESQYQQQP

On to `C=CC(=O)N1CCC(Cn2cc(-c3ccc4c(c3)OCO4)c3c(N)ncnc32)CC1`, for which the Activity entry in data set [1], in data set [14] and in data set [15] was “Non-Toxic” in each case. In addition, the pIC50 in [2] is < 5.00; in data set [3] it was < 5.00; in data set [4], < 5.00; in data set [5] it was 7.66; in data set [6], < 5.00; in data set [7], < 5.00. Moreover, the pIC50 is 5.95 in data set [9]; < 5.00 in [10]; < 5.00 in [11]; 6.20 in data set [12]; < 5.00 in data set [13]. This compound gave a Cmax in data set [8] of 258 ng/mL.
